In US20060106026A1, “4-(4-methylpiperazin-1-ylmethyl)-n-[4-pyridin-3-yl)pyrimidin-2-ylamino)phenyl]-benzamide for treating anaplastic thyroid cancer” (priority 2002, published 2006):
pIC50: −log10 of the molar value. Where two headings read alike, the source gives them in different places.

Columns and labels:
ARO = system: ARO
Source text: (§1) Human anaplastic thyroid carcinoma cell lines FRO and ARO were used with respectively, undetectable or mutant p53 in codon 273 (Fagin et al., J. Clin. Invest. 1993, 91:179-184). Human papillary carcinoma cell line NPA has p53 mutations in codons 223 and 226 (Fagin et al., J. Clin. Invest. 1993, 91:179-184), while TPC-1 and KTC-1 papillary thyroid carcinoma cell lines are wild type for p53 (Kurebayashi et al., J. Clin. Endocrinol. Metab. 2000, 85:2889-96). Stable transfection with a vector expressing wild type p53 was used to produce the 1F3 cell line from FRO cells (Zeki et al., Int. J. Cancer, 1998, 75:391-5). […] Primary human thyroid cell cultures were established as described previously (Kawabe et al., J. Clin. Endocrinol. Metab., 1989, 68:1174-83) and maintained in a 2:1 mixture of F12 Nutrient Mixture and DEM, supplemented with 3% fetal bovine serum and penicillin-streptomycin (all reagents from Invitrogen Life Technologies, Paisley, UK).
(§2) The kinetics of cell growth were examined using a cytometer as follows: cells were seeded at a density of 0.5 or 0.1×10^5 cells per well in 12-well culture plates. […] Both experiments were performed at least three times.

FRO = system: FRO
Source text: as §1, §2

KTC-1 = settings: read-out: IC50 values, mean (50% reduction in cell growth); KTC-1, 72 h of incubation, n=3
Source text: as §1, §2

NPA = system: NPA
Source text: as §1, §2

TPC-1 = settings: read-out: IC50 values, mean (50% reduction in cell growth); TPC-1, 72 h of incubation, n=3
Source text: as §1, §2

primary thyrocytes (PT) = settings: read-out: IC50 values, mean (50% reduction in cell growth), 72 h of incubation, n=3
Source text: as §1, §2

[1] = read-out: IC50 (cytostatic effect)
[2] = read-out: IC50 values, mean (50% reduction in cell growth), 72 h of incubation, n=3

`CS(=O)(=O)O.Cc1ccc(NC(=O)c2ccc(CN3CCN(C)CC3)cc2)cc1Nc1nccc(-c2cccnc2)n1` [SALT I, 4-[(4-methyl-1-piperazin-1-ylmethyl)-N-[4-methyl-3-[[4-(3-pyridinyl)-2-pyrimidinyl]amino]phenyl]benzamide methanesulfonate] was tested, and the pIC50 (ARO; [1]) was 5.23, the pIC50 (ARO; [2]) was 5.09 and the pIC50 (FRO; [1]) was 5.11. The pIC50 (FRO; [2]) was 5.19, the pIC50 (KTC-1) was 4.65 and the pIC50 (NPA; read-out: IC50, as stated in the discussion, NPA cells) was 4.80. It also gave a pIC50 (NPA; read-out: IC50 values, mean (50% reduction in cell growth), NPA, 72 h of incubation, n=3) of 4.81, a pIC50 (TPC-1) of 4.53 and a pIC50 (primary thyrocytes (PT)) of 4.61.
